{
  "source": "patent US20210369816A1",
  "about": "“FORMULATIONS OF ABALOPARATIDE, TRANSDERMAL PATCHES THEREOF, AND USES THEREOF” (priority 2016, published 2021)",
  "key": {"[1]": {"tested_on": "rat femur fracture model", "assay": "Rat femur fracture model (fracture healing)", "format": "in vivo", "source_text": "Certain embodiments of the methods disclosed herein also include the use of the microprojection arrays as described herein in their various embodiments to accelerate fracture healing in a patient who has suffered one or more fractures and for which the fractures are not completely healed. Healing of bone fractures (eg long bone fractures) involves endochondral and intramembranous bone formation, which together form a callus that achieves union, stabilization, and gradual recovery of bone strength. […] Sixteen rats from each group were necropsied after 4 and 6 weeks of healing, with 12 fractured femurs per group used for micro-CT and biomechanical testing and the other 4 femurs used for micro-CT and histology."}, "[2]": {"tested_on": "ovariectomy-induced osteopenic rats and monkeys", "details": "ovariectomy-induced osteopenic rats and monkeys (Doyle 2013a; Doyle 2013b; Hattersley 2013); cited from earlier work"}, "[3]": {"tested_on": "treated subjects", "details": "subcutaneous administration; cited from earlier work"}, "[4]": {"details": "25 ug/kg/d sc daily, week 4, P<0.05 vs VEH"}},
  "data": [
    {"substance": "[Glu^22,25, Leu^23,28,31, Aib^29, Lys^26,30]hPTHrP(1-34)NH2 [abaloparatide]", "values": [
      {"measurement": "callus stiffness, higher vs VEH (three-point bending)", "setting": "[1]; 5 ug/kg/d sc daily, week 4, P<0.05 vs VEH", "value": 60, "unit": "%"},
      {"measurement": "callus stiffness, higher vs VEH (three-point bending)", "setting": "[1]; 5 ug/kg/d sc daily, week 6, P<0.05 vs VEH", "value": 112, "unit": "%"},
      {"measurement": "callus peak load, higher vs VEH", "setting": "[1]; [4]", "value": 77, "unit": "%"},
      {"measurement": "callus stiffness, higher vs VEH (three-point bending)", "setting": "[1]; [4]", "value": 96, "unit": "%"},
      {"measurement": "callus area (histomorphometry) vs VEH", "setting": "[1]; 5 and 25 ug/kg/d, week 4", "value": "significantly greater callus area"},
      {"measurement": "micro-CT of fracture calluses vs VEH", "setting": "[1]; 5 and 25 ug/kg/d, weeks 4 and 6", "value": "significantly greater callus bone volume, bone volume fraction, and BMC"},
      {"measurement": "histologic scoring of cortical bridging across the fracture gap vs VEH", "setting": "[1]; 5 or 25 ug/kg/d, week 4", "value": "significantly greater bridging"},
      {"measurement": "callus peak load vs VEH", "setting": "[1]; both abaloparatide groups (5 and 25 ug/kg/d), week 6", "value": "numerically higher"},
      {"measurement": "bone loss", "setting": "[2]", "value": "complete reversal of bone loss"},
      {"measurement": "bone mineral density (BMD) and/or trabecular bone score (TBS) at the lumbar spine, total hip, and femoral neck", "setting": "[3]", "value": "improve"}
    ]}
  ]
}
